# Experimental data published in patent publication US9309231B2, “Bridged ring compounds as hepatitis C virus (HCV) inhibitors and pharmaceutical applications thereof” (SUNSHINE LAKE PHARMA CO., LTD, priority 2012, dated 2016).
# What was measured:
# HCV GT1a replicon cells = experiment: HCV replicon assay, GT1a replicon cells; format: cell-based; details: Hepatitis C virus, 72 hours incubation, luciferase reporter or NEO gene qPCR readout, read-out: EC50 against HCV 1a genotype
# Protocol: (§1) An HCV Replicon assay was utilized in the present disclosure, and was prepared, developed and validated as described in Science, 1999, 285 (5424), 110-3 and J. Virol., 2003, 77 (5), 3007-19.
# (§2) HCV GT1a, GT1b and GT2a replicon cells were used to test the currently described compound series as well as wild-type cells HCV 1b and resistant cells Y^93H, L31F, P32L and I302V. GT1a and CT1b are HCV Replicon System which is transfected HCV 1a, 1b genotype respectively.
# (§3) 1. Testing EC50 of the Compounds by Luciferase Assay
# (§4) The GT1b cells and GT1a cells were seeded into 96-well plates (8,000 cells in 125 μl/well) respectively; each compound was diluted to desired concentration using 5-fold serial dilutions protocol, 10 dose in duplicate, and added to wells with POD™ 810 Plate Assembler. The final concentration of DMSO was 0.5%; the plates were incubated in a CO2 incubator for 72 hours; after that, 40 μl of Luciferase assay substrate (Promega Bright-Glo) was added to each well, and detected by a chemiluminescence detection system (Topcount Microplate Scintillation and Luminescence Counter) 5 minutes later; data analysis.
# (§5) 2. Testing EC50 of the Compounds by Detecting Antibiotic G418 Resistance Gene NEO Gene
# (§6) The GT1b cells and GT1a cells were seeded into 96-well plates (8,000 cells in 125 μl/well) respectively; each compound was diluted to desired concentration using 5-fold serial dilutions protocol, 10 dose in duplicate, and added to wells with POD™ 810 Plate Assembler., the final concentration of DMSO was 0.5%; the cells were incubated in a CO2 incubator for 72 hours; quantitative PCR. • Sample preparation: the supernatant was removed, 100 μl of FCW buffer solution was added to each well, washed carefully and discarded the solution; 50 μl of lysate FCP was added to each well, the cells was lysed as PCR template and diluted with DEPC water. • Quantitative PCR: preparation of reaction mixture according to PCR system; the reaction mixture was dispensed into a 384-well PCR reaction plate (specially for quantitative); and a standard template which was diluted in proportion was distributed into the plate; and the sample template was distributed into the plate; then the 384-well plate was sealed with closure plate membrane; the […] PCR machine was operated by procedures; data analysis.
# (§7) 3. Data Processing: The EC50 Values of Compounds were Analyzed by GraphPad Prism Software.
# HCV GT1b replicon cells = experiment: HCV replicon assay, GT1b replicon cells; format: cell-based; details: Hepatitis C virus, 72 hours incubation, luciferase reporter or NEO gene qPCR readout, read-out: EC50 against HCV 1b genotype
# Protocol: as §1, §2, §3, §4, §5, §6, §7
Compound,EC50 (HCV GT1a replicon cells),EC50 (HCV GT1b replicon cells)
COC(=O)N[C@H](C(=O)N1CCC[C@H]1C(=O)Nc1ccc(-c2ccc(-c3ccc(NC(=O)[C@@H]4CCCN4C(=O)[C@@H](NC(=O)OC)C(C)C)cc3)c3c2C2CCC3C2)cc1)C(C)C [Example 43],1130 pM,73 pM
CCC(C)[C@H](NC(=O)OC)C(=O)N1CCC[C@H]1c1nc2cc(-c3ccc(-c4ccc(-c5cnc([C@@H]6CCCN6C(=O)[C@@H](NC(=O)OC)C(C)C)[nH]5)cc4)c4c3C3CCC4C3)ccc2[nH]1 (stereo partly drawn) [Example 9],104 pM,9 pM
COC(=O)N[C@H](C(=O)N1CCC[C@H]1c1nc2cc(-c3ccc(-c4ccc(-c5cnc([C@H]6CCCN6C(=O)[C@@H](NC(=O)OC)C(C)C)[nH]5)cc4)c4c3C3CCC4C3)ccc2[nH]1)c1ccccc1 (stereo partly drawn) [Example 8],33 pM,19 pM
COC(=O)N[C@@H](C)C(=O)N1CCC[C@H]1c1ncc(-c2ccc(-c3ccc(-c4ccc5[nH]c([C@@H]6CCCN6C(=O)[C@H](C)NC(=O)OC)nc5c4)c4c3C3CCC4C3)cc2)[nH]1 (stereo partly drawn) [Example 7],94 pM,76 pM
[2H]C([2H])([2H])C([2H])(C([2H])([2H])[2H])[C@]([2H])(NC(=O)OC)C(=O)N1CCC[C@H]1c1ncc(-c2ccc(-c3nnc(-c4ccc5[nH]c([C@@H]6CCCN6C(=O)[C@@]([2H])(NC(=O)OC)C([2H])(C([2H])([2H])[2H])C([2H])([2H])[2H])nc5c4)c4c3C3CCC4CC3)cc2)[nH]1 [Example 78],45 pM,7 pM
COC(=O)N[C@H](C(=O)N1C[C@@H](C)C[C@H]1c1ncc(-c2ccc(-c3ccc(-c4cnc([C@@H]5C[C@H](C)CN5C(=O)[C@@H](NC(=O)OC)C(C)C)[nH]4)c4c3C3CCC4C3)cc2)[nH]1)C(C)C (stereo partly drawn) [Example 20],< 1 pM,45 pM
COC(=O)N[C@H](C(=O)N1C[C@H](C)C[C@H]1c1ncc(-c2ccc(-c3ccc(-c4cnc([C@@H]5C[C@H](C)CN5C(=O)[C@@H](NC(=O)OC)C(C)C)[nH]4)c4c3C3CCC4N3C)cc2)[nH]1)C(C)C (stereo partly drawn) [Example 33],38 pM,9 pM
[2H]C([2H])([2H])C([2H])(C([2H])([2H])[2H])[C@]([2H])(NC(=O)OC)C(=O)N1CCC[C@H]1c1ncc(-c2ccc(-c3ccc(-c4cnc([C@@H]5CC6CC6N5C(=O)[C@@]([2H])(NC(=O)OC)C([2H])(C([2H])([2H])[2H])C([2H])([2H])[2H])[nH]4)cc3)c3c2C2CCC3C2)[nH]1 (stereo partly drawn) [Example 76],127 pM,13 pM
COC(=O)N[C@H](C(=O)N1CC(F)(F)CC1c1ncc(-c2ccc(-c3ccc(-c4cnc([C@@H]5CC(F)(F)CN5C(=O)[C@@H](NC(=O)OC)C(C)C)[nH]4)cc3)c3c2C2CCC3N2C)[nH]1)C(C)C (stereo partly drawn) [Example 31],77 pM,38 pM
COC(=O)N[C@H](C(=O)N1CCC[C@H]1c1ncc(-c2ccc(-c3ccc(-c4cnc([C@@H]5CCCN5C(=O)[C@@H](NC(=O)OC)C(C)C)[nH]4)c4c3C3CCC4C3)cc2)[nH]1)C(C)C (stereo partly drawn) [Example 18],138 pM,14 pM
[2H]C([2H])([2H])C([2H])(C([2H])([2H])[2H])[C@]([2H])(NC(=O)OC)C(=O)N1CCC[C@H]1c1ncc(-c2ccc(-c3ccc(-c4cnc([C@@H]5CCCN5C(=O)[C@@]([2H])(NC(=O)OC)C([2H])(C([2H])([2H])[2H])C([2H])([2H])[2H])[nH]4)c4c3C3CCC4C3)c(F)c2)[nH]1 (stereo partly drawn) [Example 77],206 pM,9 pM
COC(=O)N[C@H](C(=O)N1CCC[C@H]1c1ncc(-c2ccc(-c3ccc(-c4ccc5nc([C@@H]6CCCN6C(=O)[C@@H](NC(=O)OC)C(C)C)[nH]c5c4)cc3)c3c2C2CCC3C2)[nH]1)C(C)C (stereo partly drawn) [Example 47],53 pM,13 pM
COC(=O)N[C@H](C(=O)N1CCC[C@H]1c1nc2cc(-c3ccc(-c4ccc5[nH]c([C@@H]6CCCN6C(=O)[C@@H](NC(=O)OC)C(C)C)nc5c4)c4c3C3CCC4C3)ccc2[nH]1)C(C)C [Example 6],47 pM,6 pM
COC(=O)N[C@H](C(=O)N1CCC[C@H]1c1ncc(-c2ccc3cc(-c4ccc(-c5cnc([C@@H]6CCCN6C(=O)[C@@H](NC(=O)OC)C(C)C)[nH]5)c5c4C4CCC5C4)ccc3c2)[nH]1)C(C)C (stereo partly drawn) [Example 48],43 pM,29 pM
COC(=O)N[C@H](C(=O)N1C2CC2C[C@H]1c1ncc(-c2ccc(-c3ccc(-c4ccc(-c5cnc([C@@H]6NC7CC7N6C(=O)[C@@H](NC(=O)OC)C(C)C)[nH]5)cc4)c4c3C3CCC4C3)cc2)[nH]1)C(C)C (stereo partly drawn) [Example 45],3070 pM,113 pM
